T/C data for 25 compounds are collected here from PubChem BioAssay AID330 (DTP/NCI, 2004).

In the experiment the test system is P388 leukemia ip, CD2F1 mice, survival T/C. The experiment can be described thus: NCI In Vivo Anticancer Drug Screen. Data for tumor model P388 Leukemia (intraperitoneal) in CD2F1 (CDF1) mice. Particulars: endpoint: median survival time, higher = longer survival. The method, boiled down:
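Mice carrying the transplanted tumor received test compound or vehicle. Survival was recorded in each group, and the value is the treated-group measurement divided by that of the vehicle-treated control group.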

Where [1] appears, read: dose: 50.0 mg/kg/injection, schedule: Q01DX005 (ip), vehicle: saline.
Setting [2] is: dose: 100.0 mg/kg/injection, schedule: Q01DX005 (ip), vehicle: saline.
Setting [3] is: dose: 200.0 mg/kg/injection, schedule: Q01DX005 (ip), vehicle: saline.
Where [4] appears, read: dose: 60.0 mg/kg/injection, schedule: Q01DX005 (ip), vehicle: Klucel (hydroxypropylcellulose) (HPC).
The mark [5] stands for this setting: dose: 120.0 mg/kg/injection, schedule: Q01DX005 (ip), vehicle: Klucel (hydroxypropylcellulose) (HPC).
[6] abbreviates: dose: 240.0 mg/kg/injection, schedule: Q01DX005 (ip), vehicle: Klucel (hydroxypropylcellulose) (HPC).
Where [7] appears, read: dose: 50.0 mg/kg/injection, schedule: Q01DX005 (ip), vehicle: saline with Tween-80.
[8] abbreviates: dose: 100.0 mg/kg/injection, schedule: Q01DX005 (ip), vehicle: saline with Tween-80.
Setting [9] is: dose: 200.0 mg/kg/injection, schedule: Q01DX005 (ip), vehicle: saline with Tween-80.
Setting [10] is: dose: 100.0 mg/kg/injection, schedule: Q04DX003 (ip), vehicle: saline with Tween-80.
[11] abbreviates: dose: 200.0 mg/kg/injection, schedule: Q04DX003 (ip), vehicle: saline with Tween-80.
Where [12] appears, read: dose: 400.0 mg/kg/injection, schedule: Q04DX003 (ip), vehicle: saline with Tween-80.
The mark [13] stands for this setting: dose: 50.0 mg/kg/injection, schedule: Q01DX009 (ip), vehicle: Klucel (hydroxypropylcellulose) (HPC).
[14] abbreviates: dose: 100.0 mg/kg/injection, schedule: Q01DX009 (ip), vehicle: Klucel (hydroxypropylcellulose) (HPC).
Where [15] appears, read: dose: 200.0 mg/kg/injection, schedule: Q01DX009 (ip), vehicle: Klucel (hydroxypropylcellulose) (HPC).
The mark [16] stands for this setting: dose: 50.0 mg/kg/injection, schedule: Q01DX005 (ip), vehicle: Klucel (hydroxypropylcellulose) (HPC).
Where [17] appears, read: dose: 100.0 mg/kg/injection, schedule: Q01DX005 (ip), vehicle: Klucel (hydroxypropylcellulose) (HPC).
[18] abbreviates: dose: 200.0 mg/kg/injection, schedule: Q01DX005 (ip), vehicle: Klucel (hydroxypropylcellulose) (HPC).
Where [19] appears, read: dose: 50.0 mg/kg/injection, schedule: Q01DX009 (ip), vehicle: saline with Tween-80.
Setting [20] is: dose: 200.0 mg/kg/injection, schedule: Q01DX009 (ip), vehicle: saline with Tween-80.
The mark [21] stands for this setting: dose: 50.0 mg/kg/injection, schedule: Q04DX003 (ip), vehicle: saline.
The mark [22] stands for this setting: dose: 60.0 mg/kg/injection, schedule: Q01DX005 (ip), vehicle: saline with Tween-80.
The mark [23] stands for this setting: dose: 120.0 mg/kg/injection, schedule: Q01DX005 (ip), vehicle: saline with Tween-80.
[24] abbreviates: dose: 240.0 mg/kg/injection, schedule: Q01DX005 (ip), vehicle: saline with Tween-80.

Toxic doses and inconclusive results are not listed.

Consider `CN(C)CN1C(=O)CC(c2ccccc2)C1=O` (stereo not drawn), for which the T/C under setting [1] is 110 % of control, the T/C under setting [2] is 107 % of control and the T/C under setting [3] was 115 % of control.

For the compound `CN(Cc1ccc([N+](=O)[O-])cc1)C(=O)Nc1ccc(S(=O)(=O)F)cc1`, the T/C was 110 % of control under setting [4], 92 % of control under setting [5] and 92 % of control under setting [6].

For the compound `NC(=O)CCSC(N)=O`, the T/C by setting is: under setting [7], 102 % of control; under setting [8], 100 % of control; under setting [9], 102 % of control.

With `Cn1c(/C=[N+](/C)[O-])cnc1[N+](=O)[O-]`, the T/C (dose: 50.0 mg/kg/injection, schedule: Q01DX009 (ip), vehicle: suspension in saline) is 102 % of control; the T/C (dose: 100.0 mg/kg/injection, schedule: Q01DX009 (ip), vehicle: suspension in saline) is 103 % of control; the T/C (dose: 200.0 mg/kg/injection, schedule: Q01DX009 (ip), vehicle: suspension in saline) is 108 % of control.

`NC(=O)C12OC3CC(CC(C3)O1)O2`: the T/C is 117 % of control (dose: 60.0 mg/kg/injection, schedule: Q01DX005 (ip), vehicle: saline); 98 % of control (dose: 120.0 mg/kg/injection, schedule: Q01DX005 (ip), vehicle: saline); 99 % of control (dose: 240.0 mg/kg/injection, schedule: Q01DX005 (ip), vehicle: saline).

Regarding `COC(=O)c1ccccc1NC(=O)CN1C(=O)c2ccccc2C1=O`, the T/C is 96 % of control under setting [10], 102 % of control under setting [11] and 88 % of control under setting [12].

With `CC[C@@H]1O[C@H]2O[C@@H](/C=C/C=C/C=C/c3oc(=O)cc(OC)c3C)[C@@H](O)[C@@]2(C)[C@]1(C)O`, the T/C by setting is: (dose: 0.5 mg/kg/injection, schedule: Q01DX009 (ip), vehicle: Klucel (hydroxypropylcellulose) (HPC)) 107 % of control; (dose: 1.0 mg/kg/injection, schedule: Q01DX009 (ip), vehicle: Klucel (hydroxypropylcellulose) (HPC)) 106 % of control; (dose: 2.0 mg/kg/injection, schedule: Q01DX009 (ip), vehicle: Klucel (hydroxypropylcellulose) (HPC)) 98 % of control.

Turning to `CC(=O)OC(C(Br)CBr)C(OC(C)=O)C(Br)CBr` (stereo not drawn), the T/C reads like this: (dose: 7.5 mg/kg/injection, schedule: Q01DX009 (ip), vehicle: saline) 104 % of control; (dose: 15.0 mg/kg/injection, schedule: Q01DX009 (ip), vehicle: saline) 110 % of control; (dose: 30.0 mg/kg/injection, schedule: Q01DX009 (ip), vehicle: saline) 106 % of control.

For the compound `CSc1cccc(NC(=O)OCCOc2ccc(Cl)c(C)c2)c1`, the T/C by setting is: under setting [13], 92 % of control; under setting [14], 97 % of control; under setting [15], 92 % of control.

For the compound `COC(=O)c1ccccc1S(=O)(=O)N1CCOCC1`, the T/C was 99 % of control under setting [16], 99 % of control under setting [17] and 98 % of control under setting [18].

As to `CCCCC(=C=NCCCN(C)C)CC`, the T/C runs as follows: under setting [1], 99 % of control; under setting [2], 92 % of control; under setting [3], 101 % of control.

As for `COCn1ccnc1C(=O)c1ccccc1`, the T/C was 100 % of control under setting [19]; 106 % of control (dose: 100.0 mg/kg/injection, schedule: Q01DX009 (ip), vehicle: saline with Tween-80); 101 % of control under setting [20].

`Nc1cc2ccc3ncccc3c2c2cccnc12`: the T/C under setting [10] was 103 % of control, the T/C under setting [11] was 97 % of control and the T/C under setting [12] was 97 % of control.

Take `O=C1CC[C@@H]2N1CC2(O)c1ccccc1` (mixture of isomers): the T/C was 96 % of control under setting [16], 93 % of control under setting [17] and 93 % of control under setting [18].

Consider `c1ccc(N2CCSCC2)cc1`, for which the T/C is, setting by setting: under setting [21], 104 % of control; (dose: 66.0 mg/kg/injection, schedule: Q04DX003 (ip), vehicle: saline with Tween-80) 150 % of control; under setting [10], 204 % of control; (dose: 150.0 mg/kg/injection, schedule: Q04DX003 (ip), vehicle: saline with Tween-80) 190 % of control; (dose: 200.0 mg/kg/injection, schedule: Q04DX003 (ip), vehicle: saline) 109 % of control.

As to `CCCCCCCNC1CCCc2cc(OC)ccc21` (stereo not drawn), the T/C under setting [21] was 113 % of control and the T/C (dose: 100.0 mg/kg/injection, schedule: Q04DX003 (ip), vehicle: saline) was 99 % of control.

For `COC(SC)c1cc(-c2c(Cl)cccc2Cl)no1` (stereo not drawn), the T/C runs as follows: under setting [22], 93 % of control; under setting [23], 103 % of control; under setting [24], 107 % of control.

`CC1(C)CC(=O)C(C(c2ccccc2O)C2C(=O)CC(C)(C)CC2=O)C(=O)C1`: the T/C is, setting by setting: under setting [16], 102 % of control; under setting [17], 102 % of control; under setting [18], 102 % of control.

In the case of `O=C(NO)c1ccccc1`, the T/C is 98 % of control (dose: 25.0 mg/kg/injection, schedule: Q01DX009 (ip), vehicle: Klucel (hydroxypropylcellulose) (HPC)); 102 % of control (dose: 50.0 mg/kg/injection, schedule: Q01DX001 (ip), vehicle: saline); 98 % of control under setting [13]; 103 % of control under setting [19]; 106 % of control (dose: 50.0 mg/kg/injection, schedule: Q04DX003 (ip), vehicle: saline with Tween-80); 102 % of control (dose: 100.0 mg/kg/injection, schedule: Q01DX001 (ip), vehicle: saline). Also, the T/C under setting [14] is 107 % of control; the T/C under setting [10] was 102 % of control; the T/C under setting [15] is 116 % of control; the T/C under setting [20] was 103 % of control; the T/C under setting [11] is 102 % of control; the T/C (dose: 400.0 mg/kg/injection, schedule: Q01DX009 (ip), vehicle: Klucel (hydroxypropylcellulose) (HPC)) was 114 % of control. Moreover, the T/C under setting [12] was 109 % of control.

With `CC(O)c1cc2c(cc1Br)OCO2` (stereo not drawn), the T/C is 105 % of control (dose: 100.0 mg/kg/injection, schedule: Q01DX001 (ip), vehicle: Klucel (hydroxypropylcellulose) (HPC)); 104 % of control (dose: 200.0 mg/kg/injection, schedule: Q01DX001 (ip), vehicle: Klucel (hydroxypropylcellulose) (HPC)); 104 % of control (dose: 400.0 mg/kg/injection, schedule: Q01DX001 (ip), vehicle: Klucel (hydroxypropylcellulose) (HPC)).

Turning to `NC1=C(O)C(=O)C(c2c(Cl)cccc2Cl)O1` (stereo not drawn), the T/C is 105 % of control under setting [4], 102 % of control under setting [5] and 105 % of control under setting [6].

With `CC(=O)Oc1c(N)c(C)cc(C)c1F`, the T/C (dose: 1.56 mg/kg/injection, schedule: Q01DX009 (ip), vehicle: saline with Tween-80) is 101 % of control; the T/C (dose: 3.12 mg/kg/injection, schedule: Q01DX009 (ip), vehicle: saline with Tween-80) is 93 % of control; the T/C (dose: 6.25 mg/kg/injection, schedule: Q01DX009 (ip), vehicle: saline with Tween-80) was 100 % of control; the T/C (dose: 12.5 mg/kg/injection, schedule: Q01DX009 (ip), vehicle: saline with Tween-80) is 96 % of control.

Turning to `O=C(NCc1ccco1)Nc1cccc2c(NC(=O)NCc3ccco3)cccc12`, the T/C reads like this: (dose: 30.0 mg/kg/injection, schedule: Q01DX005 (ip), vehicle: saline with Tween-80) 100 % of control; under setting [22], 97 % of control; under setting [23], 90 % of control; under setting [24], 86 % of control.

Regarding `CC(C)=CCCC1(C)C=Cc2c(ccc3c(C)coc23)O1` (stereo not drawn), the T/C under setting [7] was 97 % of control, the T/C under setting [8] was 100 % of control and the T/C under setting [9] is 100 % of control.

For the compound `COC(=O)c1cc(=O)c2scc(C)[n+]2[nH]1`, the T/C is 105 % of control under setting [7], 100 % of control under setting [8] and 100 % of control under setting [9].
